Some test systems named below: SK-MEL-2 melanoma; HL-60(TB) leukemia; UO-31 renal; PC-3 prostate; HCC-2998 colon; ACHN renal; IGROV1 ovarian; SK-OV-3 ovarian; K-562 leukemia.
Test in all cases: DTP human tumour cell line panel, 48 h

The text below walks through data of PubChem BioAssay (NCI).

One may read the TGI as the concentration giving total growth inhibition. A lower TGI goes with greater sensitivity of the cells. Usually GI50 stands for the concentration at which growth is held to half of that of the control.

The structures appear in SMILES notation. Several values for one entry are separate records, joined by “and”; a condition that tells them apart may be missing. Equal entries are not always repeated.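 These data come from cells grown in 96-well plates and exposed to compound for 48 hours at five concentrations. The concentration for 50% growth inhibition is given as GI50. TGI: concentration producing complete growth inhibition.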

On to `NC(N)=NCCCC(NC(=O)OCCCCn1ccc(N)nc1=O)C(=O)O` (stereo unspecified), for which the TGI in the assay with SK-MEL-2 melanoma, in the assay on HL-60(TB) leukemia, in the assay on UO-31 renal, in the assay with PC-3 prostate, in the assay on HCC-2998 colon and in the assay on ACHN renal was more than 100 µM in each case. Also, the TGI in the assay with IGROV1 ovarian, in the assay with SK-OV-3 ovarian and in the assay with K-562 leukemia was more than 100 µM each time.
Turning to `C=C(C(=O)O[C@H]1C(=O)C2=C(C)CCC3C(=C)C(=O)O[C@@H]3C2[C@]1(C)O)C1CC[C@]2(C)CCCC(=C)[C@H]2C1` (stereo partly specified), the TGI in the assay with SK-MEL-2 melanoma was 20.3 µM and 23.5 µM; in the assay with HL-60(TB) leukemia, 4.35 µM; in the assay on UO-31 renal, 12 µM and 16.5 µM; with PC-3 prostate it was 10.4 µM and 16.8 µM; in the assay on HCC-2998 colon it was 9.68 µM; in the assay with ACHN renal it was 11 µM and 8.85 µM. Also, the TGI in the assay on IGROV1 ovarian was 13.8 µM and 11.3 µM; with SK-OV-3 ovarian it was 30.5 µM; in the assay with K-562 leukemia, more than 20.1 µM. Also, the GI50 in the assay with PC-3 prostate was 4.08 µM; with ACHN renal, 5.19 µM; in the assay with IGROV1 ovarian it was 7.28 µM.
For the compound `CCOC(=O)N1CCC(=C2c3ccc(Cl)cc3CCc3cccnc32)CC1`, the TGI in the assay on SK-MEL-2 melanoma was determined as 27.4 µM; in the assay on HL-60(TB) leukemia, 22.9 µM; with UO-31 renal it was 4.49 µM; in the assay with PC-3 prostate it was 25.7 µM; in the assay on HCC-2998 colon, 23.6 µM; in the assay on ACHN renal it was 15.8 µM. Also, the values for the TGI in the assay on IGROV1 ovarian, in the assay with SK-OV-3 ovarian and in the assay with K-562 leukemia were 8.22 µM, 29.1 µM and 49.7 µM, respectively.
Consider `O=C(CSc1nc2ccccc2c(=O)n1-c1ccccc1)N=Nc1c(O)[nH]c2ccc(F)cc12`, for which the TGI in the assay on SK-MEL-2 melanoma turned out to be 3.59 µM; in the assay on HL-60(TB) leukemia it was 3.96 µM; in the assay on UO-31 renal, 3.73 µM; with PC-3 prostate, 3.77 µM; with HCC-2998 colon, 4.75 µM; with SK-OV-3 ovarian, 3.75 µM. In addition, in the assay on K-562 leukemia, the TGI turned out to be 3.35 µM.
`O=c1c2ccccc2nc(N/N=C/c2ccccc2O)n1-c1ccccc1`: the concentration for total growth inhibition (TGI) was more than 100 µM in the assay on SK-MEL-2 melanoma; 8.07 µM in the assay with HL-60(TB) leukemia; more than 100 µM in the assay with UO-31 renal; more than 100 µM in the assay with PC-3 prostate; more than 100 µM with HCC-2998 colon; more than 100 µM in the assay with ACHN renal. In addition, the TGI in the assay with IGROV1 ovarian, with SK-OV-3 ovarian and with K-562 leukemia was more than 100 µM each time.
Regarding `CN(C)/N=N/c1nc[nH]c1C(N)=O`, the TGI in the assay with SK-MEL-2 melanoma was 74.1 µM and 396 µM; in the assay with HL-60(TB) leukemia it was 85 µM and > 745 µM; with UO-31 renal, 96.9 µM and > 793 µM; in the assay on PC-3 prostate, more than 1000 µM; with HCC-2998 colon it was 99.5 µM and > 654 µM; with ACHN renal, more than 1000 µM. The TGI in the assay with SK-OV-3 ovarian is 88.7 µM and 328 µM. The GI50 with HL-60(TB) leukemia was 4.16 µM; in the assay with UO-31 renal it was 24.5 µM; with PC-3 prostate, 77.2 µM; in the assay on HCC-2998 colon it was 58.4 µM; in the assay on ACHN renal, 32.5 µM and 76.6 µM; with IGROV1 ovarian, 129 µM. Besides, the figures for the GI50 in the assay with SK-OV-3 ovarian and in the assay with K-562 leukemia were 14.2 µM and 39 µM, respectively.
For `COc1ccc(C2=NN=C3C(c4ccccc4)=Nc4ccccc4N3C2)cc1`, the TGI in the assay with SK-MEL-2 melanoma was more than 100 µM; in the assay on HL-60(TB) leukemia it was 38.5 µM; with UO-31 renal, 49.8 µM; with PC-3 prostate it was more than 100 µM; with HCC-2998 colon, more than 100 µM; with ACHN renal, more than 100 µM. Besides, the TGI in the assay on IGROV1 ovarian, in the assay on SK-OV-3 ovarian and with K-562 leukemia was more than 100 µM each time.
For `C[C@H]1COC2=C1C(=O)C(=O)c1c2ccc2c1CCCC2(C)C`, the TGI is 15.3 µM in the assay with SK-MEL-2 melanoma; 42.3 µM in the assay with HL-60(TB) leukemia; 14.3 µM with UO-31 renal; more than 64.5 µM with PC-3 prostate; 19.6 µM in the assay with HCC-2998 colon; more than 81.7 µM in the assay on ACHN renal. For the same compound, the TGI with IGROV1 ovarian is 29.2 µM; in the assay with SK-OV-3 ovarian, 83.6 µM; in the assay on K-562 leukemia, more than 100 µM.
Take `Cc1cc(S(=O)(=O)/N=C(/NN)NNc2cccc(C(F)(F)F)n2)c(S)cc1Cl`: the concentration for total growth inhibition (TGI) in the assay on SK-MEL-2 melanoma came to 63.2 µM; in the assay on HL-60(TB) leukemia, 71.6 µM; in the assay with UO-31 renal it was 37.2 µM; in the assay with PC-3 prostate, 50.7 µM; in the assay on HCC-2998 colon it was 31.2 µM; in the assay on ACHN renal, 50.1 µM. The figures for the total growth inhibition concentration (TGI) with SK-OV-3 ovarian and with K-562 leukemia were 53 µM and 82.6 µM, respectively.
As for `O=C(O)C(=O)/C=C(\O)c1ccc(Br)cc1`, the concentration for total growth inhibition (TGI) in the assay on SK-MEL-2 melanoma, in the assay on HL-60(TB) leukemia, with UO-31 renal, in the assay on PC-3 prostate, in the assay with HCC-2998 colon and in the assay on ACHN renal was more than 100 µM each time. The TGI in the assay with IGROV1 ovarian, in the assay on SK-OV-3 ovarian and in the assay with K-562 leukemia was more than 100 µM each time.
For the compound `O=C1CC2CCC(C1)S2=O` (stereo unspecified), the total growth inhibition concentration (TGI) in the assay on SK-MEL-2 melanoma, in the assay on HL-60(TB) leukemia, with UO-31 renal, with PC-3 prostate, with HCC-2998 colon and with IGROV1 ovarian was more than 100 µM in each case. Also, the TGI in the assay on SK-OV-3 ovarian and in the assay on K-562 leukemia was more than 100 µM each time.
In the case of `CCOC(=O)c1c(-c2cccc3ccccc23)c(C#N)c(=S)n(C2OC(COC(C)=O)C(OC(C)=O)C(OC(C)=O)C2OC(C)=O)c1C` (stereo unspecified), the TGI in the assay on SK-MEL-2 melanoma is more than 100 µM; in the assay with HL-60(TB) leukemia it was more than 100 µM; in the assay on UO-31 renal it was 3.49 µM; in the assay with PC-3 prostate, more than 100 µM; with HCC-2998 colon, more than 100 µM; in the assay on ACHN renal, more than 100 µM. Moreover, the TGI in the assay on IGROV1 ovarian, in the assay with SK-OV-3 ovarian and in the assay with K-562 leukemia was more than 100 µM each time.
Regarding `Cc1c(C(=O)O)n2cnnc2c2ccccc12`, the TGI with SK-MEL-2 melanoma, with HL-60(TB) leukemia, with UO-31 renal, in the assay with PC-3 prostate, in the assay on HCC-2998 colon and with ACHN renal was more than 100 µM in each case. For the same compound, the concentration for total growth inhibition (TGI) in the assay with IGROV1 ovarian, in the assay with SK-OV-3 ovarian and in the assay on K-562 leukemia was more than 100 µM each time.
On to `C=CCn1c(-c2ccc([N+](=O)[O-])cc2)csc1=N`, for which the TGI in the assay with SK-MEL-2 melanoma is more than 100 µM; in the assay on HL-60(TB) leukemia it was 45.2 µM; in the assay on UO-31 renal, more than 100 µM; in the assay on PC-3 prostate it was more than 100 µM; in the assay on HCC-2998 colon, more than 100 µM; with ACHN renal it was more than 100 µM. For the same compound, the figures for the TGI with IGROV1 ovarian, with SK-OV-3 ovarian and in the assay with K-562 leukemia were more than 100 µM, more than 100 µM and 91.5 µM, respectively.
